According to patent US12503469B2, “Forms of methyl {4,6-diamino-2-[1-(2-fluorobenzyl)-1H-pyrazolo[3-4-b]pyridino-3-yl]pyrimidino-5-yl} methyl carbamate” (Adverio Pharma GmbH, priority 2013, dated 2025):

Assay: Solid-state stability of the forms of the compound of formula (I)
Format: physicochemical

In the case of `COC(=O)N(C)c1c(N)nc(-c2nn(Cc3ccccc3F)c3ncccc23)nc1N` [Modification I, methyl {4,6-diamino-2-[1-(2-fluorobenzyl)-1H-pyrazolo[3,4-b]pyridino-3-yl]pyrimidino-5-yl}methylcarbamate], the “thermodynamic stability of the form” value (between 0° C. and 80° C.) is reported as “thermodynamically stable form between 0 °C and 80 °C”.

For `COC(=O)N(C)c1c(N)nc(-c2nn(Cc3ccccc3F)c3ncccc23)nc1N` [amorphous form, methyl {4,6-diamino-2-[1-(2-fluorobenzyl)-1H-pyrazolo[3,4-b]pyridin-3-yl]pyrimidin-5-yl}methylcarbamate], the “stability of the amorphous form against crystallization” value (room temperature) was “can exist at room temperature, but crystallizes very quickly”.
